Reference: patent publication EP2970215B1, “PYRROLIDINE DERIVATIVES, PHARMACEUTICAL COMPOSITIONS CONTAINING THEM, AND THEIR USE IN THERAPY” (AbbVie Deutschland GmbH & Co. KG, priority 2013, dated 2014)

Target: T1, human GlyT1c transporter (Homo sapiens, UniProt P48067)
T1 construct: expressed in transfected cells; host or cells: CHO cells (recombinant; line hGlyT1c_5_CHO is named for the uptake assay)
T1 sequence (P48067 1-706): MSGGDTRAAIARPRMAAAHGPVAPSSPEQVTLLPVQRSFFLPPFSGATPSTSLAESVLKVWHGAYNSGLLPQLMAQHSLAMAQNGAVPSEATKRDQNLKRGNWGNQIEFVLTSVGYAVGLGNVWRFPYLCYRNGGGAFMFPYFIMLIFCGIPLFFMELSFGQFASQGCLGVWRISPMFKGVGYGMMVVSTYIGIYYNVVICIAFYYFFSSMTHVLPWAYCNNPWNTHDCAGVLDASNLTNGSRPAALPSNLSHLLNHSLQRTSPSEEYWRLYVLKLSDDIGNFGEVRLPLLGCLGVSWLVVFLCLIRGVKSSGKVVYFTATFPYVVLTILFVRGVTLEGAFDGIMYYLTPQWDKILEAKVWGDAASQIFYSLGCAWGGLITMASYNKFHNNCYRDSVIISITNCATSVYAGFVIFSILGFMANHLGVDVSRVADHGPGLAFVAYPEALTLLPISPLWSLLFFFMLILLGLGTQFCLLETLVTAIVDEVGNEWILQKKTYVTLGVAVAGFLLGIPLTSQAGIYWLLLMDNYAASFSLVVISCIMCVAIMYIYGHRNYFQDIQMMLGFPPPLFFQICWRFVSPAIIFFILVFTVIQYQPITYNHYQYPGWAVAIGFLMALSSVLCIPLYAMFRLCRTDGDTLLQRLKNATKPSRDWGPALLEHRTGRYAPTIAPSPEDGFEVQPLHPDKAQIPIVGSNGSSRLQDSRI
Experiment: Radioligand binding assay using recombinant CHO cell membranes expressing human GlyT1
Conditions: radioligand binding to human GlyT1c transporter-expressing membranes
Source text: 2. Radioligand binding assays using recombinant CHO cell membranes expressing human GlyT1: […]

| Compound | Ki |
| --- | --- |
| CCC/C=C/CN[C@H]1CN(S(=O)(=O)c2cn(C)cn2)C[C@@H]1c1ccccc1 [Example 547, (3R,4S)-N-[(2E)-hex-2-en-1-yl]-1-[(1-methyl-1H-imidazol-4-yl)sulfonyl]-4-phenylpyrrolidin-3-amine] | ≤ 0.1 µM |
| CCCCCC(=O)N[C@H]1CN(S(=O)(=O)c2cn(C)cn2)C[C@@H]1c1ccccc1 [Example 550, N-{(3R,4S)-1-[(1-methyl-1H-imidazol-4-yl)sulfonyl]-4-phenylpyrrolidin-3-yl}hexanamide] | ≤ 10 µM |
| Cn1cnc(S(=O)(=O)N2C[C@H](NCCO[Si](C)(C)C(C)(C)C)[C@@H](c3ccccc3)C2)c1 [Example 551, (3R,4S)-N-(2-{[tert-butyl(dimethyl)silyl]oxy}ethyl)-1-[(1-methyl-1H-imidazol-4-yl)sulfonyl]-4-phenylpyrrolidin-3-amine] | ≤ 10 µM |
| Cn1cnc(S(=O)(=O)N2C[C@H](NCc3sccc3Cl)[C@@H](c3ccccc3)C2)c1 [Example 553, (3R,4S)-N-[(3-chlorothiophen-2-yl)methyl]-1-[(1-methyl-1H-imidazol-4-yl)sulfonyl]-4-phenylpyrrolidin-3-amine] | ≤ 1 µM |
| Cn1cnc(S(=O)(=O)N2C[C@H](NCc3cccc4ccnn34)[C@@H](c3ccccc3)C2)c1 [Example 555, (3R,4S)-1-[(1-methyl-1H-imidazol-4-yl)sulfonyl]-4-phenyl-N-(pyrazolo[1,5-a]pyridin-7-ylmethyl)pyrrolidin-3-amine] | ≤ 10 µM |
| Cn1cnc(S(=O)(=O)N2C[C@H](NCC3CC3c3ccccc3)[C@@H](c3ccccc3)C2)c1 (stereo partly drawn) [Example 564, (3R,4S)-1-[(1-methyl-1H-imidazol-4-yl)sulfonyl]-4-phenyl-N-[(2-phenylcyclopropyl)methyl]pyrrolidin-3-amine] | ≤ 1 µM |
| Cn1cnc(S(=O)(=O)N2C[C@H](NCc3scnc3Cl)[C@@H](c3ccccc3)C2)c1 [Example 565, (3R,4S)-N-[(4-chloro-1,3-thiazol-5-yl)methyl]-1-[(1-methyl-1H-imidazol-4-yl)sulfonyl]-4-phenylpyrrolidin-3-amine] | ≤ 10 µM |
| CC(CN[C@H]1CN(S(=O)(=O)c2cn(C)cn2)C[C@@H]1c1ccccc1)C(F)(F)F (stereo partly drawn) [Example 566, (3R,4S)-1-[(1-methyl-1H-imidazol-4-yl)sulfonyl]-4-phenyl-N-(3,3,3-trifluoro-2-methylpropyl)pyrrolidin-3-amine] | ≤ 10 µM |
| Cn1cnc(S(=O)(=O)N2C[C@H](NCc3ccnc(Cl)c3F)[C@@H](c3ccccc3)C2)c1 [Example 567, (3R,4S)-N-[(2-chloro-3-fluoropyridin-4-yl)methyl]-1-[(1-methyl-1H-imidazol-4-yl)sulfonyl]-4-phenylpyrrolidin-3-amine] | ≤ 1 µM |
| Cn1cnc(S(=O)(=O)N2C[C@H](NCc3cc(Cl)sc3Cl)[C@@H](c3ccccc3)C2)c1 [Example 570, (3R,4S)-N-[(2,5-dichlorothiophen-3-yl)methyl]-1-[(1-methyl-1H-imidazol-4-yl)sulfonyl]-4-phenylpyrrolidin-3-amine] | ≤ 0.01 µM |
| Cc1nc(N[C@H]2CN(S(=O)(=O)c3cn(C)cn3)C[C@@H]2c2ccccc2)nn1C [Example 575, 1,5-dimethyl-N-{(3R,4S)-1-[(1-methyl-1H-imidazol-4-yl)sulfonyl]-4-phenylpyrrolidin-3-yl}-1H-1,2,4-triazol-3-amine] | ≤ 10 µM |
| CCOCCCNC(=O)[C@@H]1CN(S(=O)(=O)c2cn(C)cn2)C[C@H]1c1ccc(F)cc1 [Example 578, (3S,4R)-N-(3-ethoxypropyl)-4-(4-fluorophenyl)-1-[(1-methyl-1H-imidazol-4-yl)sulfonyl]pyrrolidine-3-carboxamide] | ≤ 10 µM |

The remaining lines, values ahead:

| Ki | Compound |
| --- | --- |
| ≤ 10 µM | CCCCOC(=O)N[C@H]1CN(S(=O)(=O)c2cn(C)cn2)C[C@@H]1c1ccccc1 [Example 544, butyl {(3R,4S)-1-[(1-methyl-1H-imidazol-4-yl)sulfonyl]-4-phenylpyrrolidin-3-yl}carbamate] |
| ≤ 1 µM | Cn1cnc(S(=O)(=O)N2C[C@H](NCCC3CC3)[C@@H](c3ccccc3)C2)c1 [Example 545, (3R,4S)-N-(2-cyclopropylethyl)-1-[(1-methyl-1H-imidazol-4-yl)sulfonyl]-4-phenylpyrrolidin-3-amine] |
| ≥ 10 µM | Cn1cnc(S(=O)(=O)N2C[C@H](NC(=O)CC3CC3)[C@@H](c3ccccc3)C2)c1 [Example 546, 2-cyclopropyl-N-{(3R,4S)-1-[(1-methyl-1H-imidazol-4-yl)sulfonyl]-4-phenylpyrrolidin-3-yl}acetamide] |
| ≤ 10 µM | CCCCC(=O)N[C@H]1CN(S(=O)(=O)c2cn(C)cn2)C[C@@H]1c1ccccc1 [Example 549, N-{(3R,4S)-1-[(1-methyl-1H-imidazol-4-yl)sulfonyl]-4-phenylpyrrolidin-3-yl}pentanamide] |
| ≤ 10 µM | Cn1cnc(S(=O)(=O)N2C[C@H](NCc3cccc(C(F)(F)F)n3)[C@@H](c3ccccc3)C2)c1 [Example 552] |
| ≤ 1 µM | Cn1cnc(S(=O)(=O)N2C[C@H](NCC3CCC(F)(F)CC3)[C@@H](c3ccccc3)C2)c1 [Example 554, (3R,4S)-N-[(4,4-difluorocyclohexyl)methyl]-1-[(1-methyl-1H-imidazol-4-yl)sulfonyl]-4-phenylpyrrolidin-3-amine] |
| ≤ 10 µM | CC(C)c1csc(CN[C@H]2CN(S(=O)(=O)c3cn(C)cn3)C[C@@H]2c2ccccc2)n1 [Example 556, (3R,4S)-1-[(1-methyl-1H-imidazol-4-yl)sulfonyl]-4-phenyl-N-{[4-(propan-2-yl)-1,3-thiazol-2-yl]methyl}pyrrolidin-3-amine] |
| ≤ 10 µM | Cn1cnc(S(=O)(=O)N2C[C@H](NCc3ccc(C4CCCCO4)s3)[C@@H](c3ccccc3)C2)c1 (stereo partly drawn) [Example 558, (3R,4S)-1-[(1-methyl-1H-imidazol-4-yl)sulfonyl]-4-phenyl-N-{[5-(tetrahydro-2H-pyran-2-yl)thiophen-2-yl]methyl}pyrrolidin-3-amine] |
| ≤ 1 µM | CCC(C)C(C)CN[C@H]1CN(S(=O)(=O)c2cn(C)cn2)C[C@@H]1c1ccccc1 (stereo partly drawn) [Example 561, (3R,4S)-N-(2,3-dimethylpentyl)-1-[(1-methyl-1H-imidazol-4-yl)sulfonyl]-4-phenylpyrrolidin-3-amine] |
| ≤ 0.1 µM | Cn1cnc(S(=O)(=O)N2C[C@H](NCc3cc4cc(F)ccc4s3)[C@@H](c3ccccc3)C2)c1 [Example 568, (3R,4S)-N-[(5-fluoro-1-benzothiophen-2-yl)methyl]-1-[(1-methyl-1H-imidazol-4-yl)sulfonyl]-4-phenylpyrrolidin-3-amine] |
| ≤ 1 µM | Cn1cnc(S(=O)(=O)N2C[C@H](NCc3cc(Cl)ccc3OC(F)F)[C@@H](c3ccccc3)C2)c1 [Example 569, (3R,4S)-N-[5-chloro-2-(difluoromethoxy)benzyl]-1-[(1-methyl-1H-imidazol-4-yl)sulfonyl]-4-phenylpyrrolidin-3-amine] |
| ≤ 10 µM | Cn1cnc(S(=O)(=O)N2C[C@H](NCc3cccnc3-c3ccc(F)cc3)[C@@H](c3ccccc3)C2)c1 [Example 571, (3R,4S)-N-{[2-(4-fluorophenyl)pyridin-3-yl]methyl}-1-[(1-methyl-1H-imidazol-4-yl)sulfonyl]-4-phenylpyrrolidin-3-amine] |
| ≤ 1 µM | Cc1ccc(-c2ncc(CN[C@H]3CN(S(=O)(=O)c4cn(C)cn4)C[C@@H]3c3ccccc3)s2)cc1 [Example 572, (3R,4S)-1-[(1-methyl-1H-imidazol-4-yl)sulfonyl]-N-{[2-(4-methylphenyl)-1,3-thiazol-5-yl]methyl}-4-phenylpyrrolidin-3-amine] |
